Measured values published in the supplement of paper PMC11208160.

Assay: recombinant barcode read abundance after kanamycin selection (control-corrected) (log10(CPM+1)); higher = more efficient recombination; sequences stand for … in AGTGCAGAGAAAATCGGCCAGTTTTCTCTGCCTGCAGTCCGCATGCCGT…ATTTATGCAGCGGACTGCCTTTCTCCCAAAGTGATAAACCGGACAGTATCATGGACCGGTTTTCCCGGTAATCCGTATTTGCAAGGTTGGTTTCACT; site = the 11-nt target
Procedure: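 Same pooled E. coli target screen (IS621 bridge recombinase, kanamycin selection, control-corrected CPM, mean of 2 biological replicates). Here the two core-binding nucleotides of the LTG and RTG of the bridge RNA target-binding loop are mutated. Target and donor CT cores are held constant, and the other 9 guide positions match the target. The target is read from the library oligo sequence. Molecule = full bridge RNA written as DNA: nt 1-80 from the library oligo, rest WT scaffold.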

Row | Sequence | recombinant barcode read abundance (log10)
1 | AGGCGGTCTTGGGTTCTAACCTGTTGCTTTG [AGGCGGTCTAA_LTGcore_CT_RTGcore_CA] (site AGGCGGTCTAA) (LTG core: CT, RTG core: CA) | 0.0581
2 | AGGCGGTGCTGGGTTCTAACCTGTTGCTTGC [AGGCGGTCTAA_LTGcore_GC_RTGcore_GC] (site AGGCGGTCTAA) (LTG core: GC, RTG core: GC) | 0.104
3 | AGGCGGTGGTGGGTTCTAACCTGTTGCTTAG [AGGCGGTCTAA_LTGcore_GG_RTGcore_CT] (site AGGCGGTCTAA) (LTG core: GG, RTG core: CT) | 0.074
4 | AGGCGGTGGTGGGTTCTAACCTGTTGCTTCC [AGGCGGTCTAA_LTGcore_GG_RTGcore_GG] (site AGGCGGTCTAA) (LTG core: GG, RTG core: GG) | 0.0144
5 | AGGCGGTTGTGGGTTCTAACCTGTTGCTTCA [AGGCGGTCTAA_LTGcore_TG_RTGcore_TG] (site AGGCGGTCTAA) (LTG core: TG, RTG core: TG) | 0.0951
6 | AGTCTTAAATGGGTTCTAACCTGTTGCCATT [AGTCTTACTTG_LTGcore_AA_RTGcore_AA] (site AGTCTTACTTG) (LTG core: AA, RTG core: AA) | 0.0761
7 | AGTCTTACATGGGTTCTAACCTGTTGCCATG [AGTCTTACTTG_LTGcore_CA_RTGcore_CA] (site AGTCTTACTTG) (LTG core: CA, RTG core: CA) | 0.21
8 | AGTCTTACGTGGGTTCTAACCTGTTGCCACG [AGTCTTACTTG_LTGcore_CG_RTGcore_CG] (site AGTCTTACTTG) (LTG core: CG, RTG core: CG) | 0.213
9 | AGTCTTACTTGGGTTCTAACCTGTTGCCAAG [AGTCTTACTTG_LTGcore_CT_RTGcore_CT] (site AGTCTTACTTG) (LTG core: CT, RTG core: CT) | 0.0171
10 | AGTCTTACTTGGGTTCTAACCTGTTGCCAAT [AGTCTTACTTG_LTGcore_CT_RTGcore_AT] (site AGTCTTACTTG) (LTG core: CT, RTG core: AT) | 0.144
11 | AGTCTTACTTGGGTTCTAACCTGTTGCCACC [AGTCTTACTTG_LTGcore_CT_RTGcore_GG] (site AGTCTTACTTG) (LTG core: CT, RTG core: GG) | 0.0199
12 | AGTCTTACTTGGGTTCTAACCTGTTGCCAGA [AGTCTTACTTG_LTGcore_CT_RTGcore_TC] (site AGTCTTACTTG) (LTG core: CT, RTG core: TC) | 0.0445
13 | AGTCTTACTTGGGTTCTAACCTGTTGCCATA [AGTCTTACTTG_LTGcore_CT_RTGcore_TA] (site AGTCTTACTTG) (LTG core: CT, RTG core: TA) | 0.136
14 | AGTCTTACTTGGGTTCTAACCTGTTGCCATC [AGTCTTACTTG_LTGcore_CT_RTGcore_GA] (site AGTCTTACTTG) (LTG core: CT, RTG core: GA) | 0.155
15 | AGTCTTACTTGGGTTCTAACCTGTTGCCATT [AGTCTTACTTG_LTGcore_CT_RTGcore_AA] (site AGTCTTACTTG) (LTG core: CT, RTG core: AA) | 0.196
16 | AGTCTTAGCTGGGTTCTAACCTGTTGCCAGC [AGTCTTACTTG_LTGcore_GC_RTGcore_GC] (site AGTCTTACTTG) (LTG core: GC, RTG core: GC) | 0.197
17 | AGTCTTAGGTGGGTTCTAACCTGTTGCCACC [AGTCTTACTTG_LTGcore_GG_RTGcore_GG] (site AGTCTTACTTG) (LTG core: GG, RTG core: GG) | 0.274
18 | AGTCTTATATGGGTTCTAACCTGTTGCCATA [AGTCTTACTTG_LTGcore_TA_RTGcore_TA] (site AGTCTTACTTG) (LTG core: TA, RTG core: TA) | 0.153
19 | AGTCTTATTTGGGTTCTAACCTGTTGCCAAG [AGTCTTACTTG_LTGcore_TT_RTGcore_CT] (site AGTCTTACTTG) (LTG core: TT, RTG core: CT) | 0.137
